Paper PMC7006757, “Design, synthesis and in vitro biological evaluation of quinazolinone derivatives as EGFR inhibitors for antitumor treatment” (Journal of Enzyme Inhibition and Medicinal Chemistry, 2020)

How the values were obtained:
EGFR^wt-TK = biological target: T1, EGFR^wt-TK (Homo sapiens, UniProt P00533); test: In vitro EGFR^wt-TK assay (ELISA with recombinant EGFR); assay type: biochemical; details: mean ± SD of three replicates; for inhibition at 1 µM: read-out: EGFR^wt-TK inhibition rate (%, 1 μM)
T1 construct: purchased Sino Biology Inc
T1 sequence (P00533 25-1210): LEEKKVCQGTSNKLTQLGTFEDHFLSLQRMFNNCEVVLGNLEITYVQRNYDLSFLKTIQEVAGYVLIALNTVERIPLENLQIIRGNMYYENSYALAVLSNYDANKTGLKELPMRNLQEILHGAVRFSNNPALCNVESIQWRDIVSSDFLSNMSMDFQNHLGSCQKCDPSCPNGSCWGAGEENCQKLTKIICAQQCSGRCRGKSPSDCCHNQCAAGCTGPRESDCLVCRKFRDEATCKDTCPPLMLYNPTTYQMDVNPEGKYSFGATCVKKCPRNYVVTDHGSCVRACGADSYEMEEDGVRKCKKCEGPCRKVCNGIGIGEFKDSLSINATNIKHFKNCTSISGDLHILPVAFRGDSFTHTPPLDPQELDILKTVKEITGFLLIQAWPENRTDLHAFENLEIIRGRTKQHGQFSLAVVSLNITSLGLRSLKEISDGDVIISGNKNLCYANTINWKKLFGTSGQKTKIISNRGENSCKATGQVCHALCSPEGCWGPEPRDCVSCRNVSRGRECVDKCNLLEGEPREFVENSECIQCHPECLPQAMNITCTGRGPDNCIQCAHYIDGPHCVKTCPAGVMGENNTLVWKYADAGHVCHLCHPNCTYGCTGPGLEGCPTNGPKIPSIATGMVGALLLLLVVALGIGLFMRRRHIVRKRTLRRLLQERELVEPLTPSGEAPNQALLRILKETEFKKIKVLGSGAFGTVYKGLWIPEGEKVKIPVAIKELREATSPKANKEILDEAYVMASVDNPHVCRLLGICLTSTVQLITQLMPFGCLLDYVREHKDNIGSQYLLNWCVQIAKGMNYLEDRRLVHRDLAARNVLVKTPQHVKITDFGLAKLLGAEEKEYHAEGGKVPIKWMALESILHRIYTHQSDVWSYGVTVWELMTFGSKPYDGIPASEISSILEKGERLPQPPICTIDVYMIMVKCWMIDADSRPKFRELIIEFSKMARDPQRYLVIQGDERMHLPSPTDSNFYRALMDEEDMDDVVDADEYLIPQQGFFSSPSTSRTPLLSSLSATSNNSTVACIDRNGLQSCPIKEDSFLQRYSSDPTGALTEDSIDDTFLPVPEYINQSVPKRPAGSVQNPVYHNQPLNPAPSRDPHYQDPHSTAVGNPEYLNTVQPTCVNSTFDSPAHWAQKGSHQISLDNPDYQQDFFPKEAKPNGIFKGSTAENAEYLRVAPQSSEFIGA
Experimental: Recombinant EGFR was purchased from Sino Biology Inc. Antiphosphotyrosine mouse mAb was purchased from PTM Bio. The effects of compounds on the activity of wild type EGFR tyrosine kinase were determined by enzyme-linked immunosorbent assays (ELISAs) with recombinant EGFR according to reported methods.

A549 cells [1] = test: MTT assay, A549; details: Homo sapiens; for inhibition at 10 µM: A549, read-out: Inhibition rate (%, 10 μM) A549; for IC50: A549, read-out: IC50 (μM) A549
PC-3 cells = test: MTT assay, PC-3; details: Homo sapiens; for inhibition at 10 µM: PC-3, read-out: Inhibition rate (%, 10 μM) PC-3; for IC50: PC-3, read-out: IC50 (μM) PC-3
SMMC-7721 cells = test: MTT assay, SMMC-7721; details: Homo sapiens; for inhibition at 10 µM: SMMC-7721, read-out: Inhibition rate (%, 10 μM) SMMC-7721; for IC50: SMMC-7721, read-out: IC50 (μM) SMMC-7721
EGFR = details: Figure 2; read-out: Reported EGFR inhibitors: IC50; cited from earlier work
A549 cells [2] = test: Cell cycle analysis, PI flow cytometry; assay type: cell-based, human; details: for Percentage of cells in G0/G1 / Percentage of cells in S / Percentage of cells in G2/M: 48 h
A549 cells [3] = test: Cell apoptosis analysis, Annexin V-FITC/PI flow cytometry; assay type: cell-based, human; details: A549, 5, 10, 20 μM, 48 h

Row | SMILES | melting point [°C] | inhibition at 1 µM (EGFR^wt-TK) [%] | inhibition at 10 µM (A549 cells [1]) [%] | inhibition at 10 µM (PC-3 cells) [%] | inhibition at 10 µM (SMMC-7721 cells) [%] | other results
1 | COc1ccc(-c2nnc(-n3c(-c4ccccc4)nc4cc(Cl)ccc4c3=O)s2)cc1 [I] | – | – | – | – | – | IC50 (EGFR): 0.32 µM
2 | Cc1ccc(/N=C/c2ccc(OCc3nc4ccccc4c(=O)n3C)cc2)cc1 [5c, (E)-3-methyl-2-((4-((p-tolylimino)methyl)phenoxy)methyl)quinazolin-4(3H)-one] | 182 to 184 | 50.8 ± 3.29 | 12.1 ± 2 | 7.46 ± 0.52 | 31.8 ± 9.91 | –
3 | Cn1c(COc2ccc(/C=N/c3cc(F)cc(F)c3)cc2)nc2ccccc2c1=O [5l, (E)-2-((4-(((3,5-difluorophenyl)imino)methyl)phenoxy)methyl)-3-methylquinazolin-4(3H)-one] | 220 to 221 | 61.9 ± 1.51 | 31.2 ± 2.49 | 54.3 ± 7.59 | 41 ± 2.63 | IC50 (EGFR^wt-TK): 0.54 ± 0.031 µM; IC50 (A549 cells [1]): 7.22 ± 3.51 µM; IC50 (PC-3 cells): 13.3 ± 1.12 µM; IC50 (SMMC-7721 cells): 6.04 ± 0.55 µM
4 | N[C@@H](Cc1ccccc1)C(=O)Nn1c(-c2ccc(F)cc2)nc2ccc(F)cc2c1=O [II] | – | – | – | – | – | IC50 (EGFR): 0.164 µM
5 | COc1cc2ncnc(Nc3ccc(F)c(Cl)c3)c2cc1OCCCN1CCOCC1 [Gefitinib, reference compound] | – | – | – | – | – | Percentage of cells in G0/G1 (A549 cells [2]; A549, 5 μM): 58.50%; Percentage of cells in S (A549 cells [2]; A549, 5 μM): 12.03%; Percentage of cells in G0/G1 (A549 cells [2]; A549, 10 μM): 62.15%; Percentage of cells in S (A549 cells [2]; A549, 10 μM): 13.56%
6 | Cn1c(COc2ccc(/C=N/c3cccc(Br)c3)cc2)nc2ccccc2c1=O [5j, (E)-2-((4-(((3-bromophenyl)imino)methyl)phenoxy)methyl)-3-methylquinazolin-4(3H)-one] | 176 to 178 | 53.3 ± 1.58 | 18 ± 6.69 | 17.9 ± 6.12 | 18.6 ± 1.51 | –
7 | Cn1c(COc2ccc(/C=N/c3ccc(Cl)c(C(F)(F)F)c3)cc2)nc2ccccc2c1=O [5p, (E)-2-((4-(((4-chloro-3-(trifluoromethyl)phenyl)imino)methyl)phenoxy)methyl)-3-methylquinazolin-4(3H)-one] | 163 to 164 | 4.32 ± 1.92 | 15.6 ± 2.66 | 22.6 ± 1.28 | 17.5 ± 2.67 | –
8 | COc1ccc(/N=C/c2ccc(OCc3nc4ccccc4c(=O)n3C)cc2)cc1 [5e, (E)-2-((4-(((4-methoxyphenyl)imino)methyl)phenoxy)methyl)-3-methylquinazolin-4(3H)-one] | 180 to 182 | 53.6 ± 1.25 | 25.9 ± 7.46 | 40.2 ± 3.57 | 20.1 ± 9.11 | –
9 | O=c1[nH]cc(F)c(=O)[nH]1 [5-Fluorouracil, reference compound] | – | 63.4 ± 1.69 | 40.4 ± 1.15 | 29.3 ± 1.24 | 29.1 ± 2.75 | IC50 (EGFR^wt-TK): 0.14 ± 0.011 µM; IC50 (A549 cells [1]): 1.53 ± 0.72 µM; IC50 (PC-3 cells): 22.5 ± 0.74 µM; IC50 (SMMC-7721 cells): 11.4 ± 1.95 µM

More lines, main results first:

Row | melting point [°C] | inhibition at 1 µM (EGFR^wt-TK) [%] | SMILES | inhibition at 10 µM (A549 cells [1]) [%] | inhibition at 10 µM (PC-3 cells) [%] | inhibition at 10 µM (SMMC-7721 cells) [%] | other results
10 | 200 to 202 | 56.2 ± 2.16 | Cn1c(COc2ccc(/C=N/c3ccc(F)cc3)cc2)nc2ccccc2c1=O [5h, (E)-2-((4-(((4-fluorophenyl)imino)methyl)phenoxy)methyl)-3-methylquinazolin-4(3H)-one] | 14.8 ± 5.06 | 14.8 ± 2.3 | 22.9 ± 1.66 | –
11 | 143 to 145 | 1.31 ± 3.64 | Cn1c(COc2ccc(/C=N/c3ccccc3F)cc2)nc2ccccc2c1=O [5f, (E)-2-((4-(((2-fluorophenyl)imino)methyl)phenoxy)methyl)-3-methylquinazolin-4 (3H)-one] | 16.3 ± 1.43 | 5.46 ± 0.28 | 2.65 ± 1.81 | –
12 | 181 to 183 | 48.4 ± 0.35 | Cn1c(COc2ccc(/C=N/c3ccc(F)cc3F)cc2)nc2ccccc2c1=O [5n, (E)-2-((4-(((2,4-difluorophenyl)imino)methyl)phenoxy)methyl)-3-methylquinazolin-4(3H)-one] | 33.3 ± 3.63 | 25.8 ± 4.84 | 11.5 ± 2.87 | –
13 | 168 to 170 | 65 ± 1.51 | Cn1c(COc2ccc(/C=N/c3cccc(F)c3)cc2)nc2ccccc2c1=O [5g, (E)-2-((4-(((3-fluorophenyl)imino)methyl)phenoxy)methyl)-3-methylquinazolin-4(3H)-one] | 15.6 ± 2.56 | 4.76 ± 0.51 | 35.6 ± 1.27 | IC50 (EGFR^wt-TK): 0.047 ± 0.004 µM; IC50 (A549 cells [1]): 19.7 ± 2.34 µM; IC50 (PC-3 cells): 30.1 ± 1.86 µM; IC50 (SMMC-7721 cells): 35.9 ± 5.85 µM
14 | 150 to 152 | 1.91 ± 0.91 | Cn1c(COc2ccc(/C=N/c3ccccc3)cc2)nc2ccccc2c1=O [5a, (E)-3-methyl-2-((4-((phenylimino)methyl)phenoxy)methyl)quinazolin-4(3H)-one] | 15.4 ± 1.52 | 7.36 ± 2.38 | 15.1 ± 5.91 | –
15 | 181 to 183 | 25.8 ± 1.92 | Cn1c(COc2ccc(/C=N/c3c(F)cccc3F)cc2)nc2ccccc2c1=O [5m, (E)-2-((4-(((2,6-difluorophenyl)imino)methyl)phenoxy)methyl)-3-methylquinazolin-4(3H)-one] | 15.2 ± 3.61 | 26.8 ± 0.59 | 15.1 ± 5.79 | –
16 | 179 to 181 | 1.04 ± 0.91 | Cn1c(COc2ccc(/C=N/c3cccc(Cl)c3)cc2)nc2ccccc2c1=O [5i, (E)-2-((4-(((3-chlorophenyl)imino)methyl)phenoxy)methyl)-3-methylquinazolin-4(3H)-one] | 23.3 ± 7.52 | 9.6 ± 2.69 | 13.1 ± 2.92 | –
17 | 162 to 164 | 2.57 ± 1.25 | Cc1ccccc1/N=C/c1ccc(OCc2nc3ccccc3c(=O)n2C)cc1 [5b, (E)-3-methyl-2-((4-((o-tolylimino)methyl)phenoxy)methyl)quinazolin-4(3H)-one] | 14.5 ± 4.09 | 23.9 ± 8.59 | 24.3 ± 1.7 | –
18 | 188 to 189 | 16.7 ± 2.99 | Cn1c(COc2ccc(/C=N/c3ccc(F)c(Cl)c3)cc2)nc2ccccc2c1=O [5o, (E)-2-((4-(((3-chloro-4-fluorophenyl)imino)methyl)phenoxy)methyl)-3-methyl quinazolin-4(3H)-one] | 18.7 ± 9.78 | 13.9 ± 0.92 | 24.5 ± 1.37 | –
19 | 152 to 154 | 63.4 ± 1.83 | Cn1c(COc2ccc(/C=N/c3ccc(F)c(F)c3)cc2)nc2ccccc2c1=O [5k, (E)-2-((4-(((3,4-difluorophenyl)imino)methyl)phenoxy)methyl)-3-methylquinazolin-4(3H)-one] | 27 ± 1.63 | 57.5 ± 2.77 | 34.9 ± 4.72 | IC50 (EGFR^wt-TK): 0.01 ± 0.001 µM; IC50 (A549 cells [1]): 12.3 ± 4.12 µM; Induction of apoptosis in A549 cells (A549 cells [3]): induces cellular apoptosis in a concentration-dependent way; IC50 (PC-3 cells): 17.1 ± 3.61 µM; IC50 (SMMC-7721 cells): 15.7 ± 1.64 µM; Percentage of cells in G0/G1 (A549 cells [2]; A549, 5 μM): 61.23%; Percentage of cells in G2/M (A549 cells [2]; A549, 5 μM): 25.31%; Percentage of cells in S (A549 cells [2]; A549, 5 μM): 13.46%; Percentage of cells in G0/G1 (A549 cells [2]; A549, 10 μM): 62.42%; Percentage of cells in G2/M (A549 cells [2]; A549, 10 μM): 23.10%; Percentage of cells in S (A549 cells [2]; A549, 10 μM): 14.48%; Cell cycle arrest of A549 cells (A549 cells [2]; A549, 48 h): arrested in the G2/M phase
20 | 141 to 143 | 38.7 ± 1.83 | COc1ccccc1/N=C/c1ccc(OCc2nc3ccccc3c(=O)n2C)cc1 [5d, (E)-2-((4-(((2-methoxyphenyl)imino)methyl)phenoxy)methyl)-3-methylquinazolin-4(3H)-one] | 20.8 ± 4.81 | 38.2 ± 1.4 | 2.78 ± 4.23 | –
